In this test the test system is BDF1 mice, P388 leukemia ip, median survival T/C. The experiment in a line: NCI In Vivo Anticancer Drug Screen. Data for tumor model P388 Leukemia (intraperitoneal) in B6D2F1 (BDF1) mice. To be noted: endpoint: median survival time, higher = longer survival. In a few lines: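 Antitumour effect was judged in vivo: survival in drug-treated mice, normalised to that of vehicle-dosed controls, gives the reported T/C.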

The mark [1] stands for this setting: dose: 200.0 mg/kg/injection, schedule: Q01DX009 (ip), vehicle: saline with Tween-80.
The mark [2] stands for this setting: dose: 12.5 mg/kg/injection, schedule: Q04DX003 (ip), vehicle: Klucel (hydroxypropylcellulose) (HPC).
[3] abbreviates: dose: 50.0 mg/kg/injection, schedule: Q04DX003 (ip), vehicle: Klucel (hydroxypropylcellulose) (HPC).
Setting [4] is: dose: 200.0 mg/kg/injection, schedule: Q04DX003 (ip), vehicle: Klucel (hydroxypropylcellulose) (HPC).
Setting [5] is: dose: 75.0 mg/kg/injection, schedule: Q01DX009 (ip), vehicle: Klucel (hydroxypropylcellulose) (HPC).
Setting [6] is: dose: 115.0 mg/kg/injection, schedule: Q01DX009 (ip), vehicle: Klucel (hydroxypropylcellulose) (HPC).

Where “and” joins values, the source holds several entries; their conditions need not be identical. Identical values can stand only once. Inconclusive results and toxic doses are left out.

Take `COCCc1ccncc1`: the T/C is 101 % of control (dose: 100.0 mg/kg/injection, schedule: Q01DX009 (ip), vehicle: saline with Tween-80) and 97 % of control under setting [1].
For `[Na+]`, the T/C (dose: 3.0 mg/kg/injection, schedule: Q01DX009 (ip), vehicle: saline) was 104 % of control; the T/C (dose: 6.0 mg/kg/injection, schedule: Q01DX009 (ip), vehicle: saline) was 95 % of control; the T/C (dose: 12.0 mg/kg/injection, schedule: Q01DX009 (ip), vehicle: saline) was 104 % of control; the T/C (dose: 12.5 mg/kg/injection, schedule: Q04DX003 (ip), vehicle: saline) is 109 % of control; the T/C (dose: 25.0 mg/kg/injection, schedule: Q04DX003 (ip), vehicle: saline) was 95 % of control.
Regarding `C/C(=N/NC(=O)c1ccccc1)c1ccc(Cl)cc1Cl`, the T/C (dose: 3.12 mg/kg/injection, schedule: Q04DX003 (ip), vehicle: Klucel (hydroxypropylcellulose) (HPC)) is 110 % of control; the T/C (dose: 6.25 mg/kg/injection, schedule: Q04DX003 (ip), vehicle: Klucel (hydroxypropylcellulose) (HPC)) was 105 % of control; the T/C under setting [2] was 100 % of control; the T/C (dose: 18.0 mg/kg/injection, schedule: Q01DX009 (ip), vehicle: Klucel (hydroxypropylcellulose) (HPC)) was 100 % of control; the T/C (dose: 18.0 mg/kg/injection, schedule: Q04DX003 (ip), vehicle: Klucel (hydroxypropylcellulose) (HPC)) was 100 % of control; the T/C (dose: 28.0 mg/kg/injection, schedule: Q01DX009 (ip), vehicle: Klucel (hydroxypropylcellulose) (HPC)) is 104 % of control. Besides, the T/C is, setting by setting: (dose: 28.0 mg/kg/injection, schedule: Q04DX003 (ip), vehicle: Klucel (hydroxypropylcellulose) (HPC)) 100 % of control; (dose: 40.0 mg/kg/injection, schedule: Q04DX003 (ip), vehicle: Klucel (hydroxypropylcellulose) (HPC)) 104 % of control; (dose: 60.0 mg/kg/injection, schedule: Q04DX003 (ip), vehicle: Klucel (hydroxypropylcellulose) (HPC)) 110 % of control; (dose: 90.0 mg/kg/injection, schedule: Q04DX003 (ip), vehicle: Klucel (hydroxypropylcellulose) (HPC)) 110 % of control.
`O=CC(/C=N\Nc1ccccc1)=N/Nc1ccccc1`: the T/C runs as follows: (dose: 20.0 mg/kg/injection, schedule: Q01DX009 (ip), vehicle: saline with Tween-80) 100 % of control; (dose: 80.0 mg/kg/injection, schedule: Q01DX009 (ip), vehicle: saline with Tween-80) 89 % of control.
With `CCCC1=NNc2n[nH]c(=S)n2N1`, the T/C is 100 % of control under setting [2]; 91 % of control (dose: 25.0 mg/kg/injection, schedule: Q04DX003 (ip), vehicle: Klucel (hydroxypropylcellulose) (HPC)); 91 % of control under setting [3].
As to `O=C(Nc1cccc(Cl)c1)c1cc(N=Nc2ccc([N+](=O)[O-])cc2Cl)ccc1O`, the T/C is 114 % of control (dose: 25.0 mg/kg/injection, schedule: Q01DX009 (ip), vehicle: Klucel (hydroxypropylcellulose) (HPC)); 114 % of control (dose: 50.0 mg/kg/injection, schedule: Q01DX009 (ip), vehicle: Klucel (hydroxypropylcellulose) (HPC)); 115 % of control (dose: 133.0 mg/kg/injection, schedule: Q04DX003 (ip), vehicle: Klucel (hydroxypropylcellulose) (HPC)); 161 % of control under setting [4]; 155 % of control (dose: 400.0 mg/kg/injection, schedule: Q04DX003 (ip), vehicle: Klucel (hydroxypropylcellulose) (HPC)).
As to `Cc1ncc(CO)c(/C=N/OCc2ccc(OCc3ccccc3)cc2)c1O`, the T/C runs as follows: (dose: 50.0 mg/kg/injection, schedule: Q04DX003 (ip), vehicle: saline sonified) 100 % of control; (dose: 100.0 mg/kg/injection, schedule: Q04DX003 (ip), vehicle: saline sonified) 100 % of control; (dose: 200.0 mg/kg/injection, schedule: Q04DX003 (ip), vehicle: saline sonified) 95 % of control.
Consider `CCCCCCCCCCCCCCCCCC(=O)[O][Hg][c]1ccccc1`, for which the T/C was 100 % of control (dose: 5.0 mg/kg/injection, schedule: Q01DX009 (ip), vehicle: Klucel (hydroxypropylcellulose) (HPC)); 104 % of control (dose: 5.5 mg/kg/injection, schedule: Q01DX001 (ip), vehicle: Klucel (hydroxypropylcellulose) (HPC)); 104 % of control (dose: 10.0 mg/kg/injection, schedule: Q01DX009 (ip), vehicle: Klucel (hydroxypropylcellulose) (HPC)); 115 % of control (dose: 10.0 mg/kg/injection, schedule: Q01DX009 (ip), vehicle: other); 95 % of control (dose: 11.0 mg/kg/injection, schedule: Q01DX001 (ip), vehicle: Klucel (hydroxypropylcellulose) (HPC)); 115 % of control (dose: 14.0 mg/kg/injection, schedule: Q04DX003 (ip), vehicle: Klucel (hydroxypropylcellulose) (HPC)). The T/C is 109 % of control (dose: 20.0 mg/kg/injection, schedule: Q01DX009 (ip), vehicle: Klucel (hydroxypropylcellulose) (HPC)) and 120 % of control (dose: 22.0 mg/kg/injection, schedule: Q04DX003 (ip), vehicle: Klucel (hydroxypropylcellulose) (HPC)).
Take `O=C1c2ccccc2C(=O)N1c1cc(OCc2ccccc2)cc(OCc2ccccc2)c1`: the T/C reads like this: (dose: 0.78 mg/kg/injection, schedule: Q01DX009 (ip), vehicle: water) 99 % of control and 103 % of control; (dose: 1.56 mg/kg/injection, schedule: Q01DX009 (ip), vehicle: water) 96 % of control and 101 % of control; (dose: 3.12 mg/kg/injection, schedule: Q01DX009 (ip), vehicle: water) 105 % of control and 120 % of control; (dose: 6.25 mg/kg/injection, schedule: Q01DX009 (ip), vehicle: water) 96 % of control; (dose: 12.5 mg/kg/injection, schedule: Q01DX009 (ip), vehicle: water) 95 % of control and 99 % of control and 112 % of control; (dose: 25.0 mg/kg/injection, schedule: Q01DX009 (ip), vehicle: water) 99 % of control and 105 % of control. The T/C (dose: 50.0 mg/kg/injection, schedule: Q01DX009 (ip), vehicle: water) was 89 % of control and 117 % of control; the T/C (dose: 50.0 mg/kg/injection, schedule: Q04DX003 (ip), vehicle: water) was 94 % of control; the T/C (dose: 100.0 mg/kg/injection, schedule: Q01DX009 (ip), vehicle: water) is 96 % of control; the T/C (dose: 100.0 mg/kg/injection, schedule: Q04DX003 (ip), vehicle: water) was 99 % of control; the T/C (dose: 200.0 mg/kg/injection, schedule: Q01DX009 (ip), vehicle: water) was 88 % of control and 115 % of control; the T/C (dose: 200.0 mg/kg/injection, schedule: Q04DX003 (ip), vehicle: water) was 90 % of control. The T/C is 101 % of control (dose: 400.0 mg/kg/injection, schedule: Q01DX009 (ip), vehicle: water) and 99 % of control (dose: 400.0 mg/kg/injection, schedule: Q04DX003 (ip), vehicle: water).
With `N=C(N)SC(c1ccccc1)c1ccccc1`, the T/C is 100 % of control (dose: 100.0 mg/kg/injection, schedule: Q01DX001 (ip), vehicle: Klucel (hydroxypropylcellulose) (HPC)) and 104 % of control (dose: 200.0 mg/kg/injection, schedule: Q01DX001 (ip), vehicle: Klucel (hydroxypropylcellulose) (HPC)).
`CN1OCC2CCCC(c3ccccc3)C21` (centres undefined): the T/C under setting [3] is 100 % of control; the T/C (dose: 100.0 mg/kg/injection, schedule: Q04DX003 (ip), vehicle: Klucel (hydroxypropylcellulose) (HPC)) is 100 % of control; the T/C under setting [4] is 100 % of control.
For `CCOC(=O)C1=C(C)NC(C)=C(C(=O)OCC)C1c1ccccc1Cl`, the T/C was 95 % of control (dose: 28.75 mg/kg/injection, schedule: Q04DX003 (ip), vehicle: Klucel (hydroxypropylcellulose) (HPC)); 104 % of control (dose: 57.5 mg/kg/injection, schedule: Q04DX003 (ip), vehicle: Klucel (hydroxypropylcellulose) (HPC)); 90 % of control under setting [5]; 86 % of control under setting [6]; 100 % of control (dose: 115.0 mg/kg/injection, schedule: Q04DX003 (ip), vehicle: Klucel (hydroxypropylcellulose) (HPC)); 100 % of control (dose: 170.0 mg/kg/injection, schedule: Q01DX001 (ip), vehicle: Klucel (hydroxypropylcellulose) (HPC)). For the same molecule, for the setting “dose: 260.0 mg/kg/injection, schedule: Q01DX001 (ip), vehicle: Klucel (hydroxypropylcellulose) (HPC)”, the T/C is 100 % of control.
For `CCN(CC)CCNc1ccc(N=Nc2cnc3ccccc3c2)c2ccccc12`, the T/C was 95 % of control under setting [5] and 100 % of control under setting [6].
Consider `O=Cc1ccc(C(Cl)(Cl)Cl)cc1`, for which the T/C runs as follows: (dose: 50.0 mg/kg/injection, schedule: Q01DX009 (ip), vehicle: saline with Tween-80) 92 % of control; under setting [1], 122 % of control; (dose: 400.0 mg/kg/injection, schedule: Q04DX003 (ip), vehicle: saline with Tween-80) 163 % of control.

Source of the values: PubChem BioAssay AID328 (DTP/NCI, 2004).
